Assay results published in patent publication US20090221603A1, “HETEROCYCLIC AMIDE DERIVATIVES AS CALCIUM CHANNEL BLOCKERS” (priority 2005, published 2009).
Where two headings read alike, the source gives them in different places.

Key:
[1] = biological target: T1, human α1G T-type channels (Homo sapiens, UniProt O43497); test: T-type calcium channel block, patch clamp in HEK cell lines; format: cell-based; settings: mainly non-inactivated protocol; HEK cells expressing human α1G; read-out: IC50 @ −80 mV
T1 construct: expressed in transfected cells

[2] = biological target: T2, rat brain N-type calcium channel subunits (α1B+α2δ+β1b cDNA subunits) (Rattus norvegicus, UniProt Q02294); test: N-type calcium channel block, whole cell patch clamp in HEK 293 cells; format: cell-based; settings: holding potential −80 mV to +10 mV
T2 construct: expressed in transfected cells; host or cells: HEK 293 (stably, alternatively transiently, transfected)
Protocol: A. Transformation of HEK Cells: • N-type calcium channel blocking activity was assayed in human embryonic kidney cells, HEK 293, stably transfected with the rat brain N-type calcium channel subunits (α1B+α2δ+β1b cDNA subunits). Alternatively, N-type calcium channels (α1B+α2δ+β1b cDNA subunits), L-type channels (α1C+α2δ+β1b cDNA subunits) and P/Q-type channels (α1A+α2δ+β1b cDNA subunits) were transiently expressed in HEK 293 cells. Briefly, cells were cultured in Dulbecco's modified eagle medium (DMEM) supplemented with 10% fetal bovine serum, 200 U/ml penicillin and 0.2 mg/ml streptomycin at 37° C. with 5% CO2. At 85% confluency cells were split with 0.25% trypsin/1 mM EDTA and plated at 10% confluency on glass coverslips. At 12 hours the medium was replaced and the cells transiently transfected using a standard calcium phosphate protocol and the appropriate calcium channel cDNA's. Fresh DMEM was supplied and the cells transferred to 28° C./5% CO2. Cells were incubated for 1 to 2 days prior to whole cell recording.
B. Measurement of Inhibition
Whole cell patch clamp experiments were performed using an Axopatch 200B amplifier (Axon Instruments, Burlingame, Calif.) linked to a personal computer equipped with pCLAMP software. The external and internal recording solutions contained, respectively, 5 mM BaCl2, 10 mM MgCl2, 10 mM HEPES, 40 mM TEACl, 10 mM glucose, 87.5 mM CsCl (pH 7.2) and 108 mM CsMS, 4 mM MgCl2, 9 mM EGTA, 9 mM HEPES (pH 7.2). Currents were typically elicited from a holding potential of −80 mV to +10 mV using Clampex software (Axon Instruments). Typically, currents were first elicited with low frequency stimulation (0.067 Hz) and allowed to stabilize prior to application of the compounds. The compounds were then applied during the low frequency pulse trains for two to three minutes to assess tonic block, and subsequently the pulse frequency was increased to 0.2 Hz to assess frequency dependent block. Data were analyzed using Clampfit (Axon Instruments) and SigmaPlot 4.0 (Jandel Scientific).

[3] = low frequency stimulation 0.067 Hz (tonic block), read-out: IC50 @ 0.067 Hz
[4] = pulse frequency 0.2 Hz (frequency dependent block), read-out: IC50 @ 0.2 Hz

T2 sequence (Q02294 whole entry): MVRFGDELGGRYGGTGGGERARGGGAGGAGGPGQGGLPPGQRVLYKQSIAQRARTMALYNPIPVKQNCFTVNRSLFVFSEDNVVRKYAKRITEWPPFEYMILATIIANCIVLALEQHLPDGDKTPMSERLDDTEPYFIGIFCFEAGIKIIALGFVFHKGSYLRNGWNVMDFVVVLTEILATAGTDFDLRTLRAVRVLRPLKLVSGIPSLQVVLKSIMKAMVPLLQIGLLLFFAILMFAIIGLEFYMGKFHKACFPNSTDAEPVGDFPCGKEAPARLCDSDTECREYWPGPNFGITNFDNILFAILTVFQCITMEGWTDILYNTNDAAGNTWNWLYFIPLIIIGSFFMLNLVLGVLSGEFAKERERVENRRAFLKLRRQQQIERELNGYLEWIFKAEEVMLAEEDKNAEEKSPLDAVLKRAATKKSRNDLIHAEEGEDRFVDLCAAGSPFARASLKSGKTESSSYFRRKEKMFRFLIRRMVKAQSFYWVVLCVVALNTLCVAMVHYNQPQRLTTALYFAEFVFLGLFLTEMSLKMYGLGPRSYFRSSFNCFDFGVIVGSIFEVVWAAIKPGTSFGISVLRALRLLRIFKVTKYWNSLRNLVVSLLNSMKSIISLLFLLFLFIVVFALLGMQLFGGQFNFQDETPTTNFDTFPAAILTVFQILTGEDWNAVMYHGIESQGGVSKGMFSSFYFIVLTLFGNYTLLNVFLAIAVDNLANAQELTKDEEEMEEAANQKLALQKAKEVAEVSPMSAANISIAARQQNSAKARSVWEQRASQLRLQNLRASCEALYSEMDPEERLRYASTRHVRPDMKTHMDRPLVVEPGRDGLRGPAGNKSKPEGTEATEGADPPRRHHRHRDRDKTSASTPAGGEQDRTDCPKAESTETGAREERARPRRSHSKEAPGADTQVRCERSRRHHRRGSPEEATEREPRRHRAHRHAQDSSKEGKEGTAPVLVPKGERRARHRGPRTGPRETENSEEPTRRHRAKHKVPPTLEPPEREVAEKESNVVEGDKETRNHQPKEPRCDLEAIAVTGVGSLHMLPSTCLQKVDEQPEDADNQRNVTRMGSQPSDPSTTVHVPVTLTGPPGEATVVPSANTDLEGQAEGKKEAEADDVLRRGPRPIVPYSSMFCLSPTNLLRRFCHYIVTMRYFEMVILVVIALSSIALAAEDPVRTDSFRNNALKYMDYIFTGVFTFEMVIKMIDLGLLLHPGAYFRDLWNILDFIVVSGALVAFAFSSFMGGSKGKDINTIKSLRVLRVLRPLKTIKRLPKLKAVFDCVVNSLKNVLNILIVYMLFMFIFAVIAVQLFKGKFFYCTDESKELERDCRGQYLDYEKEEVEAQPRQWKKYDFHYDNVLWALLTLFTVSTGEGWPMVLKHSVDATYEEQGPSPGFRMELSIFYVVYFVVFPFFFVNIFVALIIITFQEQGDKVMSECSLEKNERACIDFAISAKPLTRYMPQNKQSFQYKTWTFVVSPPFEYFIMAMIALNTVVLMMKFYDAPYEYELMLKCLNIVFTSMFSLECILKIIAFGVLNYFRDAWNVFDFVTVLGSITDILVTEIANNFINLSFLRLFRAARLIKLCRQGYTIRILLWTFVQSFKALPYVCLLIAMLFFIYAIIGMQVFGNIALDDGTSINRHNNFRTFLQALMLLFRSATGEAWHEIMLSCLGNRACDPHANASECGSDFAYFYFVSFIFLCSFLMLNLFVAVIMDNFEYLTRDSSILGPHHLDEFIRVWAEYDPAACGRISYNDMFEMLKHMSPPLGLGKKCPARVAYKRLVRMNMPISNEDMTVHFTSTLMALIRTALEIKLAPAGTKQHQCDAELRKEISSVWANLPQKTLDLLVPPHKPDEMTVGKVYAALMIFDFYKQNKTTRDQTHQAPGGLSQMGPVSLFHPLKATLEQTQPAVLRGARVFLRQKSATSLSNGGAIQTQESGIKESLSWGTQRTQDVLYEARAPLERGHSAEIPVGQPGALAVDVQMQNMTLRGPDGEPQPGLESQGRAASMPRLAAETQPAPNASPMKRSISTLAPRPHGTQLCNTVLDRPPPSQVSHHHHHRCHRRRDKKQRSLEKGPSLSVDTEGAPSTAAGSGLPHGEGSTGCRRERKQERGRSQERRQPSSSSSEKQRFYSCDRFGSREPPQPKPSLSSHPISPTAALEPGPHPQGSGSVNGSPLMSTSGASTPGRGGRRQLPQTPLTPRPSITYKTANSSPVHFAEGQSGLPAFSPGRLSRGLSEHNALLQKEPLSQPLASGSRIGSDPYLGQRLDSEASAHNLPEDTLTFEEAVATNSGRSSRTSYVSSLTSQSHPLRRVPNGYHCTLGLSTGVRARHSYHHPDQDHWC
T2 sequence (P54290 25-944 partner limits assumed): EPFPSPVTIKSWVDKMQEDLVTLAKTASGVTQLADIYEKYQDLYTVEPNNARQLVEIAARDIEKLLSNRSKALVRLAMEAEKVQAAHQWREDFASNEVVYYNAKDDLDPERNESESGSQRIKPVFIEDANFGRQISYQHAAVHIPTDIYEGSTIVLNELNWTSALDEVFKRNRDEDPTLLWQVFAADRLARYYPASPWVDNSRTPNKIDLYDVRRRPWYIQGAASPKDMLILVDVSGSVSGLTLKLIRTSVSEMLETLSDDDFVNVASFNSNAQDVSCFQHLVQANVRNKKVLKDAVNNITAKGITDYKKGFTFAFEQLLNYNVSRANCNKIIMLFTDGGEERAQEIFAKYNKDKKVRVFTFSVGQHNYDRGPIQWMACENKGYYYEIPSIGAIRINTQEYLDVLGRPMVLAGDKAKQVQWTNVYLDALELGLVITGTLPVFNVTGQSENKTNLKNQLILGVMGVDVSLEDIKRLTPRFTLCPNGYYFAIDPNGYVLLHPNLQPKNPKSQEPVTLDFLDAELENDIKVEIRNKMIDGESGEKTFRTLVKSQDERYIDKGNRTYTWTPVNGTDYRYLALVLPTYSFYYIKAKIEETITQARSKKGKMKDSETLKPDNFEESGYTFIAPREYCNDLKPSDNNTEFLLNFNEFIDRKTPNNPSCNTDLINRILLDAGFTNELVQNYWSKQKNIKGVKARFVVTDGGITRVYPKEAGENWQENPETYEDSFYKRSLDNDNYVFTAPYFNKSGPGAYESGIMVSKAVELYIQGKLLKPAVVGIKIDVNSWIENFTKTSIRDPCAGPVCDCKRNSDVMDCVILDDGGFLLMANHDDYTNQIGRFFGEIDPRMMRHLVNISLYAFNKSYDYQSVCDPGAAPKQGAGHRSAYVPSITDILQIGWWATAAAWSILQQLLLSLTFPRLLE
T2 sequence (P54290 945-1091 partner limits assumed): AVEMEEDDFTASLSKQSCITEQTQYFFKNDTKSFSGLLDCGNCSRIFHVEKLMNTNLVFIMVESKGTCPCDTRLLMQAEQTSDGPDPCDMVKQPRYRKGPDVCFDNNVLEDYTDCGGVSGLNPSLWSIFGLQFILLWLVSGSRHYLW
T2 sequence (P54283 whole entry partner): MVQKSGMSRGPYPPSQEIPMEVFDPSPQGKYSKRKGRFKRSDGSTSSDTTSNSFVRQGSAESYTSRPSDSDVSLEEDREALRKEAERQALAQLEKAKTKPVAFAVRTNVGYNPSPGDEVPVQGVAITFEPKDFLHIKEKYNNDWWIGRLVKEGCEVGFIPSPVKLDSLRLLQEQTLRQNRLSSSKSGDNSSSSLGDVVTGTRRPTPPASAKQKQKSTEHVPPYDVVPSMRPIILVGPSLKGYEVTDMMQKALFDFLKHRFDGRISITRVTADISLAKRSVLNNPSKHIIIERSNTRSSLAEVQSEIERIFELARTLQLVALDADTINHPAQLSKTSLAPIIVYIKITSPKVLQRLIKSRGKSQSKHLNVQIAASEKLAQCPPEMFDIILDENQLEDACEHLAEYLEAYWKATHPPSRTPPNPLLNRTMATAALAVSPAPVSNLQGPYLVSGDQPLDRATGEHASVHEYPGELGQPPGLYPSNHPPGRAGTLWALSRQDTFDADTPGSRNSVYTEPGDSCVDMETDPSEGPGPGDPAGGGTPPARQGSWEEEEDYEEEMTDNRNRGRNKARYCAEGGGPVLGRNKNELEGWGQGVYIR

| Structure (SMILES) | IC50 [1] [µM] | IC50 [2, 3] [µM] | IC50 [2, 4] [µM] |
| --- | --- | --- | --- |
| CN(CC(=O)N1CCN(C(c2ccccc2)c2ccccc2)CC1)C(c1ccccc1)c1ccccc1 [Compound 2, 2-benzhydryl(methyl)amino-1-(4-benzhydrylpiperazin-1-yl)ethanone] | 2.9 | 0.52 | 0.31 |
| CN(CC(=O)N1CCN(C(c2ccccc2)c2cccc(Cl)c2)CC1)C(c1ccccc1)c1ccccc1 (stereo not shown) [Compound 4, 2-benzhydryl(methyl)amino-1-(4-((3-chlorophenyl)(phenyl)methyl)piperazin-1-yl)ethanone] | – | 1.24 | 0.84 |
| CN(CC(=O)N1CCN(C(c2ccccc2)c2ccccc2Cl)CC1)C(c1ccccc1)c1ccccc1 (stereo not shown) [Compound 5, 2-benzhydryl(methyl)amino-1-(4-((2-chlorophenyl)(phenyl)methyl)piperazin-1-yl)ethanone] | – | > 4.67 | > 2.94 |
| CN(CC(=O)N1CCN(C(c2ccccc2)c2cccc(C(F)(F)F)c2)CC1)C(c1ccccc1)c1ccccc1 (stereo not shown) [Compound 7] | – | 1.46 | 0.67 |
| CN1CCC(C(=O)N2CCN(C(=O)CNC(c3ccccc3)c3ccccc3)CC2)CC1 [Compound 10, 2-benzhydrylamino-1-(4-(1-methylpiperidine-4-carbonyl)piperazin-1-yl)ethanone] | – | > 4.97 | > 2.64 |
| CN1CCC(CN2CCN(C(=O)CN(C)C(c3ccccc3)c3ccccc3)CC2)CC1 [Compound 12] | – | 7.4 | 2.07 |
| O=C(CNc1ccc(Cl)cc1)N1CCN(C(c2ccccc2)c2ccccc2)CC1 [Compound 17, 1-(4-benzhydrylpiperazin-1-yl)-2-(4-chlorophenylamino)ethanone] | – | > 7.6 | > 4.6 |
| O=C(CNc1cc(F)cc(F)c1)N1CCN(C(c2ccccc2)c2ccccc2)CC1 [Compound 21, 1-(4-benzhydrylpiperazin-1-yl)-2-(3,5-difluorophenylamino)ethanone] | – | 1.4 | 0.7 |
| O=C(CNc1cc(Cl)cc(Cl)c1)N1CCN(C(c2ccccc2)c2ccccc2)CC1 [Compound 22, 1-(4-benzhydrylpiperazin-1-yl)-2-(3,5-dichlorophenylamino)ethanone] | – | 2.4 | 0.98 |
| CC1CN(CC2CCOCC2)CC(C)N1C(=O)C[S+]([O-])C(c1ccccc1)c1ccccc1 (stereo not shown) [Compound 34, 2-(benzhydrylsulfinyl)-1-(2,6-dimethyl-4-((tetrahydro-2H-pyran-4-yl)methyl)piperazin-1-yl)ethanone] | – | > 6.6 | > 4.7 |
| O=C(CNC(c1ccccc1)c1ccccc1)N1CCN(CC2CCOCC2)CC1 [Compound 38, 2-(benzhydrylamino)-1-(4-((tetrahydro-2H-pyran-4-yl)methyl)piperazin-1-yl)ethanone] | – | 9.53 | 4.91 |
| Cc1cc(CN2CCN(C(=O)COC(c3ccccc3)c3ccccc3)CC2)cc(Cl)n1 [Compound 40, 2-(benzhydryloxy)-1-(4-((2-chloro-6-methylpyridin-4-yl)methyl)piperazin-1-yl)ethanone] | – | 1.2 | 0.74 |
| CN1CCC(CN2CCN(C(=O)COC(c3ccccc3)c3ccccc3)CC2)CC1 [Compound 41, 2-(benzhydryloxy)-1-(4-((1-methylpiperidin-4-yl)methyl)piperazin-1-yl)ethanone] | – | > 4.8 | > 3.2 |
| CN1CCC(CN2CCN(C(=O)C[S+]([O-])C(c3ccccc3)c3ccccc3)CC2)CC1 (stereo not shown) [Compound 43, 2-(benzhydrylsulfinyl)-1-(4-((1-methylpiperidin-4-yl)methyl)piperazin-1-yl)ethanone] | – | 4.26 | 1.34 |
| O=C(CSC(c1ccccc1)c1ccccc1)N1CCN(C(c2ccccc2)c2ccccc2)CC1 [Compound 44, 1-(4-benzhydrylpiperazin-1-yl)-2-(benzhydrylthio)ethanone] | – | 0.6 | 0.27 |
| O=C(C[S+]([O-])C(c1ccccc1)c1ccccc1)N1CCN(C(c2ccccc2)c2ccccc2)CC1 (stereo not shown) [Compound 45, 1-(4-benzhydrylpiperazin-1-yl)-2-(benzhydrylsulfinyl)ethanone] | – | 0.29 | 0.2 |
| O=C(CSC(c1ccccc1)c1ccccc1)N1CCN(C(c2ccc(F)cc2)c2ccc(F)cc2)CC1 [Compound 47, 2-(benzhydrylthio)-1-(4-(bis(4-fluorophenyl)methyl)piperazin-1-yl)ethanone] | – | 4.92 | 3.23 |
| O=C(COC(c1ccccc1)c1ccccc1)N1CCN(C(c2ccccc2)c2ccccc2)C(CO)C1 (stereo not shown) [Compound 50, 2-(benzhydryloxy)-1-(4-benzhydryl-3-hydroxymethylpiperazin-1-yl)ethanone] | – | 0.4 | 0.23 |
| O=C(C[S+]([O-])C(c1ccccc1)c1ccccc1)N1CCN(C(c2ccccc2)c2ccccc2)C(CO)C1 (stereo not shown) [Compound 52, 1-(4-benzhydryl-3-hydroxymethylpiperazin-1-yl)-2-(benzhydrylsulfinyl)ethanone] | – | 1.23 | 0.97 |
| COCC1CN(C(=O)C[S+]([O-])C(c2ccccc2)c2ccccc2)CCN1C(c1ccccc1)c1ccccc1 (stereo not shown) [Compound 56, 1-(4-benzhydryl-3-methoxymethylpiperazin-1-yl)-2-(benzhydrylsulfinyl)ethanone] | – | 0.18 | 0.13 |

More lines, now with the values ahead:

| IC50 [1] [µM] | IC50 [2, 3] [µM] | IC50 [2, 4] [µM] | Structure (SMILES) |
| --- | --- | --- | --- |
| 0.08 | 0.14 | 0.08 | O=C(CNC(c1ccccc1)c1ccccc1)N1CCN(C(c2ccccc2)c2ccccc2)CC1 [Compound 1, 2-benzhydrylamino-1-(4-benzhydrylpiperazin-1-yl)ethanone] |
| – | 2.45 | 0.85 | CN(CC(=O)N1CCN(C(c2ccccc2)c2ccc(Cl)cc2)CC1)C(c1ccccc1)c1ccccc1 (stereo not shown) [Compound 3, 2-benzhydryl(methyl)amino-1-(4-((4-chlorophenyl)(phenyl)methyl)piperazin-1-yl)ethanone] |
| 2 | 0.17 | 0.12 | CN(CC(=O)N1CCN(C(c2ccccc2)c2ccc(F)cc2)CC1)C(c1ccccc1)c1ccccc1 (stereo not shown) [Compound 6, 2-benzhydryl(methyl)amino-1-(4-((4-fluorophenyl)(phenyl)methyl)piperazin-1-yl)ethanone] |
| – | 4 | 2.5 | CN1CCC(CN2CCN(C(=O)CNC(c3ccccc3)c3ccccc3)CC2)CC1 [Compound 9] |
| – | > 11.8 | 7.92 | CN1CCC(C(=O)N2CCN(C(=O)CN(C)C(c3ccccc3)c3ccccc3)CC2)CC1 [Compound 11, 2-benzhydryl(methyl)amino-1-(4-(1-methylpiperidine-4-carbonyl)piperazin-1-yl)ethanone] |
| – | 0.55 | 0.44 | CN1CCC(C(c2ccccc2)N2CCN(C(=O)CN(C)C(c3ccccc3)c3ccccc3)CC2)CC1 (stereo not shown) [Compound 14, 2-benzhydryl(methyl)amino-1-(4-((1-methylpiperidin-4-yl)(phenyl)methyl)piperazin-1-yl)ethanone] |
| – | 4.3 | 0.8 | O=C(CNc1ccccc1)N1CCN(C(c2ccccc2)c2ccccc2)CC1 [Compound 16] |
| – | 1.29 | 1.03 | O=C(CNc1cccc(Cl)c1)N1CCN(C(c2ccccc2)c2ccccc2)CC1 [Compound 18, 1-(4-benzhydrylpiperazin-1-yl)-2-(3-chlorophenylamino)ethanone] |
| – | 2.3 | 1.5 | COc1cc(NCC(=O)N2CCN(C(c3ccccc3)c3ccccc3)CC2)cc(OC)c1OC [Compound 25, 1-(4-benzhydrylpiperazin-1-yl)-2-(3,4,5-trimethoxyphenylamino) ethanone] |
| – | 1 | 0.64 | CC1CN(CC2CCOCC2)CC(C)N1C(=O)COC(c1ccccc1)c1ccccc1 (stereo not shown) [Compound 32, 2-(benzhydryloxy)-1-(2,6-dimethyl-4-((tetrahydro-2H-pyran-4-yl)methyl)piperazin-1-yl)ethanone] |
| – | 8.3 | 1.3 | O=C(COC(c1ccccc1)c1ccccc1)N1CCN(CC2CCOCC2)CC1 [Compound 35, 2-(benzhydryloxy)-1-(4-((tetrahydro-2H-pyran-4-yl)methyl)piperazin-1-yl)ethanone] |
| – | 0.33 | 0.21 | COCC1CN(C(=O)COC(c2ccccc2)c2ccccc2)CCN1C(c1ccccc1)c1ccccc1 (stereo not shown) [Compound 54, 2-(benzhydryloxy)-1-(4-benzhydryl-3-methoxymethylpiperazin-1-yl)ethanone] |
